In ChEMBL document CHEMBL1133185, “Inhibition of clinically relevant mutant variants of HIV-1 by quinazolinone non-nucleoside reverse transcriptase inhibitors” (J Med Chem, 2000):

Key:
MT2 [1] = assay: Antiviral activity against HIV-2 in MT-2 cells by yield assay; format: functional; settings: Homo sapiens
[2] = tested on: Human immunodeficiency virus 1; assay: Plasma antiviral activity was evaluated for RF strain of HIV-1; format: functional
[3] = tested on: Human immunodeficiency virus 1; assay: Plasma Potency against Mutant HIV-1 sL100I; format: functional; settings: Human immunodeficiency virus 1, Plasma
[4] = tested on: Human immunodeficiency virus 1; assay: Antiviral activity against Thai 9466, a wild-type clinical strain of HIV in PBMC by P24 assay; format: functional
[5] = tested on: Human immunodeficiency virus 1; assay: Potency against Mutant HIV-1 K103N; format: functional
[6] = tested on: Human immunodeficiency virus 1; assay: Potency against Mutant HIV-1 sV179D/L100I/Y181C; format: functional
MT2 [7] = assay: Antiviral activity against RF strain of HIV in MT-2 cells by yield assay; format: functional; settings: Homo sapiens
[8] = tested on: Human immunodeficiency virus 1; assay: Antiviral activity against A018C, Zidovudine resistant clinical strain of HIV in PBMC by P24 assay; format: functional
[9] = tested on: Human immunodeficiency virus 1; assay: Compound was evaluated for the inhibition of wide-type RF strain of HIV-1; format: functional
[10] = tested on: Human immunodeficiency virus 1; assay: Calculated Potency against Mutant HIV-1 sL100I; format: functional
Homo sapiens [11] = species: Homo sapiens; assay: percentage of the free compound in tissue culture medium; format: functional
[12] = tested on: Human immunodeficiency virus 1; assay: Calculated Potency against Mutant HIV-1 K103N; format: functional
[13] = tested on: Human immunodeficiency virus 1; assay: Plasma Potency against Mutant HIV-1 sV179D/L100I/Y181C; format: functional
[14] = tested on: Human immunodeficiency virus 1; assay: Plasma Potency against Mutant HIV-1 K103N; format: functional; settings: Human immunodeficiency virus 1, Plasma
Homo sapiens [15] = species: Homo sapiens; assay: percentage of the free compound in human serum; format: functional
[16] = tested on: Human immunodeficiency virus 1; assay: Calculated Potency against Mutant HIV-1 sV179D/L100I/Y181C; format: functional
[17] = tested on: Human immunodeficiency virus 1; assay: Antiviral activity against HIV-1 K103N mutant virus.; format: functional
MT2 [18] = assay: Antiviral activity against RF strain of HIV in MT-2 cells by RNA assay; format: functional; settings: Homo sapiens
[19] = tested on: Human immunodeficiency virus 1; assay: Potency against Mutant HIV-1 sL100I; format: functional
MT2 [20] = assay: Protein Binding was evaluated by PB shift in MT-2 by RNA assay; format: functional; settings: Homo sapiens
[21] = percentage in tissue culture medium
[22] = tested on: Human immunodeficiency virus 1; assay: Potency of second-generation NNRTIs against Mutant HIV-1 K103N; format: functional
[23] = tested on: Human immunodeficiency virus 1; assay: Potency of second-generation NNRTIs against Mutant HIV-1 sV179D/L100I/Y181C; format: functional
[24] = tested on: Human immunodeficiency virus 1; assay: Potency of second-generation NNRTIs against Mutant HIV-1 sL100I; format: functional
[25] = tested on: Human immunodeficiency virus 1; assay: Potency of second-generation NNRTIs against Mutant HIV-1 sL100I free drug; format: functional
MT2 [26] = assay: Antiviral activity of Protein Binding of compound was evaluated for HIV-2 virus expressed MT-2 by yield; format: functional, Human immunodeficiency virus 2; settings: Homo sapiens
[27] = tested on: Human immunodeficiency virus 1; assay: Potency of second-generation NNRTIs against Mutant HIV-1 K103N free drug; format: functional
[28] = tested on: Human immunodeficiency virus 1; assay: Potency of second-generation NNRTIs against Mutant HIV-1 sV179D/L100I/Y181C plasma; value ranges from 130000-309500; format: functional
Homo sapiens [29] = species: Homo sapiens; assay: percentage in human serum; value ranges from -0.2-0.5; format: functional
MT2 [30] = assay: Antiviral activity of Protein Binding of compound was evaluated for RF virus expressed MT-2 by RNA; format: functional, Human immunodeficiency virus 1; settings: Homo sapiens
MT2 [31] = assay: Antiviral activity of Protein Binding of compound was evaluated for E virus expressed MT-2 by yield; format: functional, Human immunodeficiency virus 1; settings: Homo sapiens
MT2 [32] = assay: Antiviral activity of Protein Binding of compound was evaluated for RF virus expressed MT-2 by yield; format: functional, Human immunodeficiency virus 1; settings: Homo sapiens
[33] = tested on: Human immunodeficiency virus 1; assay: Potency of second-generation NNRTIs against Mutant HIV-1 sL100I plasma; Value ranges from 6600-15700; format: functional
[34] = tested on: Human immunodeficiency virus 1; assay: Potency of second-generation NNRTIs against Mutant HIV-1 K103N plasma; Vlaue ranges from 3400-8100; format: functional
[35] = tested on: Human immunodeficiency virus 1; assay: Antiviral activity toward K103N mutant HIV-1 virus as protein binding adjusted (PB adj).; format: functional
[36] = tested on: Human immunodeficiency virus 1; assay: Compound was evaluated for the inhibition of wilde-type RF strain of HIV-1; format: functional
[37] = tested on: Human immunodeficiency virus 1; assay: In vitro antiviral activity against HIV-1 (L100I).; format: functional
[38] = tested on: Human immunodeficiency virus 1; assay: Potency of second-generation NNRTIs against Mutant HIV-1 sV179D/L100I/Y181C free drug; format: functional
[39] = tested on: Human immunodeficiency virus 1; assay: Antiviral activity of Protein Binding of compound was evaluated for A 018C virus expressed PBMC by P24; format: functional
[40] = tested on: Human immunodeficiency virus 1; assay: Antiviral activity of Protein Binding of compound was evaluated for Thai 9466 virus expressed PBMC by P24; format: functional
MT2 [41] = assay: Antiviral activity of Protein Binding of compound was evaluated for PB shift virus expressed MT-2 by RNA; format: functional, Human immunodeficiency virus 1; settings: Homo sapiens
[42] = target: Human immunodeficiency virus type 1 reverse transcriptase (Human immunodeficiency virus 1, UniProt Q72547); assay: Inhibition of HIV-1 reverse transcriptase.
[43] = tested on: Human immunodeficiency virus 1; assay: Compound was evaluated for antiviral activity against L100I mutant virus; format: functional
[44] = tested on: Human immunodeficiency virus 1; assay: Antiviral activity was evaluated for the inhibition of wild-type RF strain of HIV-1 in an in vitro enzyme assay.; format: functional
[45] = tested on: Human immunodeficiency virus 1; assay: The compound was evaluated for the effect of human plasma protein binding on antiviral efficacy; format: functional; settings: Human immunodeficiency virus 1, Plasma
[46] = tested on: Human immunodeficiency virus 1; assay: Compound was evaluated for the inhibition of human plasma protein binding adjusted (PB Adj) wild-type RF strain of HIV-1; format: functional; settings: Human immunodeficiency virus 1, Plasma

O=C1Nc2ccc(Cl)cc2[C@@](C#CC2CC2)(C(F)(F)F)N1 (stereo in doubt)
IC90 (MT2 [1]): > 2800 nM
IC90 [2]: 40 nM
IC90 [3]: 270 nM
IC90 [4]: 5 nM
IC90 [5]: 10 nM
IC90 [6]: 190 nM
IC90 (MT2 [7]): 2.7 nM
IC90 [8]: 2.5 nM
IC90 [9]: 2 nM
IC90 [10]: 4 nM
Free (Homo sapiens [11]): 31%
IC90 [12]: 3.1 nM
IC90 [13]: 3900 nM
IC90 [14]: 210 nM
Free (Homo sapiens [15]): 1.5%
IC90 [16]: 59 nM
IC90 [17]: 10 nM
IC90 (MT2 [18]): 2 nM
IC90 [19]: 13 nM
IC90 (MT2 [20]): 17 nM

O=C1Nc2ccc(Cl)cc2[C@@](C#CC2CC2)(C(F)(F)F)O1 [EFAVIRENZ]
Free [21]: 27%
IC90 [22]: 64 nM
IC90 [23]: 2400 nM
IC90 [24]: 120 nM
IC90 [25]: 33 nM
IC90 (MT2 [26]): > 3000 nM
IC90 [27]: 17 nM
IC90 [28]: 310000 nM
Free (Homo sapiens [29]): 0.5%
IC90 (MT2 [30]): 1.7 nM
IC90 (MT2 [31]): 2.8 nM
IC90 (MT2 [32]): 2.4 nM
IC90 [33]: 15700 nM
IC90 [34]: 8100 nM
IC90 [35]: 1060 nM
IC90 [36]: 1.7 nM
IC90 [37]: 77 nM
IC90 [38]: 650 nM
IC90 ([17]; Human immunodeficiency virus 1): 64 nM
IC90 [39]: 2.8 nM
IC90 [40]: 8.5 nM
IC90 (MT2 [41]): 17 nM

CCC#C[C@]1(C(F)(F)F)NC(=O)Nc2ccc(F)c(F)c21
IC50 [42]: 74 nM
IC90 [43]: 18 nM
IC90 [44]: 1.5 nM
IC90 [35]: 93 nM
IC90 [45]: 10 nM
IC90 ([17]; Human immunodeficiency virus 1): 14 nM

O=C1Nc2ccc(F)c(Cl)c2[C@@](C#Cc2ccccn2)(C(F)(F)F)N1
IC50 [42]: 80 nM
IC90 [46]: 41 nM
IC90 [43]: 44 nM
IC90 [44]: 2.3 nM
IC90 [35]: 1310 nM
IC90 ([17]; Human immunodeficiency virus 1): 73 nM
